These results are taken from patent publication US20090246153A1, “COSMETIC COMPOSITIONS FOR THE INHIBITION OF REACTIVE OXYGEN SPECIES” (Nu Skin International, Inc., priority 2008, published 2009).

In test [1] the test system is arNOX. The test is described as follows: arNOX inhibition: superoxide formation measured by reduction of ferric cytochrome c, serum or buffy coats. The test is classed as biochemical. How it is done: Superoxide Production By Buffy Coats: Buffy coats, a mixture of lymphocytes and platelets. Such buffy coats are commercially available from, for example Rockland ImmunoChemicals (Gilbertsville, Pa.). The blood samples were maintained at 4° C. prior to collection and assay. Ca. 10^7 cells were added to each assay. Cell numbers were determined using a hemocytometer.
Reduction of ferric cytochrome c by superoxide was employed as a standard measure of superoxide formation (Mayo, L. A. and Cumutte, J. (1990) Meth. Enzyme. 186, 567-575. 7. Butler, J, Koppenol, W. H. and Margollash, E. (1982) J. Biol. Chem. 257, 10747). This is a widely accepted method when coupled to superoxide dismutase inhibition for the measurement of superoxide generation. The assay consists of 150 μl serum or 40 μl buffy coats in PBSG buffer (8.06 g NaCl, 0.2 g KCl, 0.18 g Na2HPO4, 0.26 g KH2PO4, 0.13 g CaCl2, 0.1 g MgCl2 1.35 g glucose dissolved in 1000 ml deionized water, adjusted to pH 7.4, filtered and stored at 4° C.) Rates were determined using an SLM Aminco DW-2000 spectrophotometer (Milton Roy, Rochester, N.Y., USA) in the dual wave length mode of operation with continuous measurements over 1 min every 1.5 min. After 45 min, test compounds were added and the reaction was continued for 45 min. After 45 min. A millimolar extinction coefficient of 19.1 cm^−1 was used for reduced ferricytochrome c. The results of the test compounds are provided in Table I. Extracts were made of the compounds in water unless otherwise indicated.

Test [2] has as its system arNOX. The note with it: cited from earlier work.

With `CC1=C(/C=C/C(C)=C/C=C/C(C)=C/C=C/C=C(C)/C=C/C=C(C)/C=C/C2=C(C)CCCC2(C)C)C(C)(C)CCC1` [β-Carotene], the “ArNOX ACTIVITY % OF NO ADDITION” value was 73% in the test with arNOX [1] (Ethanol, 0.25 μg/ml); 50% with arNOX [1] (Ethanol, 2.5 μg/ml); 68% with arNOX [1] (Ethanol, 25 μg/ml); 28% with arNOX [1] (Water, 25 μg/ml). In addition, the “INHIBITION (−) or STIMULATION (+)” value is −42% with arNOX [1] (Ethanol, 0.25 μg/ml); −50% with arNOX [1] (Ethanol, 2.5 μg/ml); −32% with arNOX [1] (Ethanol, 25 μg/ml); −72% in the test on arNOX [1] (Water, 25 μg/ml).
For `COC1=C(OC)C(=O)C(C/C=C(\C)CC/C=C(\C)CC/C=C(\C)CC/C=C(\C)CC/C=C(\C)CC/C=C(\C)CC/C=C(\C)CC/C=C(\C)CC/C=C(\C)CCC=C(C)C)=C(C)C1=O` [co-enzyme Q, ubiquinone], the “arNOX activity of aging cells” value with arNOX [2] was “inhibited”.
In the case of `CC1=C(/C=C/C(C)=C/C=C/C(C)=C/C=C/C=C(C)/C=C/C=C(C)/C=C/C2=C(C)C(=O)[C@@H](O)CC2(C)C)C(C)(C)C[C@H](O)C1=O` [Natural astaxanthin, astaxanthin], in the test with arNOX [1] (Ethanol, 25 μg/ml), the “ArNOX ACTIVITY % OF NO ADDITION” value was found to be 62% and the “INHIBITION (−) or STIMULATION (+)” value was −38%.
